# According to ChEMBL document CHEMBL4622874, “Discovery of ORN0829, a potent dual orexin 1/2 receptor antagonist for the treatment of insomnia” (Bioorg Med Chem, 2020):
# The source made the active and inactive calls. The rule behind the calls is not given here.
# Experiments:
# [1] = Half-life in dog at 0.5 mg/kg, iv; type: ADME, organism-based, Canis lupus familiaris; settings: in vivo
# [2] = target: T1, Orexin/Hypocretin receptor type 1 (Homo sapiens, UniProt O43613); assay: Antagonist activity at human recombinant OX1R expressed in CHOK1 cells assessed as inhibition of orexin A-induced intracellular Ca2+ release preincubated for 30 mins followed by orexin-A stimulation by Fluo4-AM dye based fluorescence analysis; type: functional, cell-based, CHO-K1
# T1 sequence (O43613 whole entry): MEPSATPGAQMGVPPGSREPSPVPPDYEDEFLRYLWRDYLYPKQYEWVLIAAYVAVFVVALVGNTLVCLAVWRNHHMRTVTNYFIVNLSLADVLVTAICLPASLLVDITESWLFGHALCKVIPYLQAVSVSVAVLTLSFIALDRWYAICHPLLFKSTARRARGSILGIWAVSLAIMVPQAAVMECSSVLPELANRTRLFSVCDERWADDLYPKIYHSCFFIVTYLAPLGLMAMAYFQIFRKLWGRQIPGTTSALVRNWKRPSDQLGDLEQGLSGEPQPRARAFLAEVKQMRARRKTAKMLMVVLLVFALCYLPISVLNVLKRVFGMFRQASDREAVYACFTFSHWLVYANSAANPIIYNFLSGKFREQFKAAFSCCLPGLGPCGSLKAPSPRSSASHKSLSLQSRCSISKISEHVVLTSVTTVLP
# Orexin receptor type 2 = target: T2, Orexin receptor type 2 (Homo sapiens, UniProt O43614); assay: Antagonist activity at human recombinant OX2R expressed in CHOK1 cells assessed as inhibition of orexin A-induced intracellular Ca2+ release preincubated for 30 mins followed by orexin-A stimulation by Fluo-4AM dye based fluorescence analysis; type: functional, cell-based, CHO-K1
# T2 sequence (O43614 whole entry): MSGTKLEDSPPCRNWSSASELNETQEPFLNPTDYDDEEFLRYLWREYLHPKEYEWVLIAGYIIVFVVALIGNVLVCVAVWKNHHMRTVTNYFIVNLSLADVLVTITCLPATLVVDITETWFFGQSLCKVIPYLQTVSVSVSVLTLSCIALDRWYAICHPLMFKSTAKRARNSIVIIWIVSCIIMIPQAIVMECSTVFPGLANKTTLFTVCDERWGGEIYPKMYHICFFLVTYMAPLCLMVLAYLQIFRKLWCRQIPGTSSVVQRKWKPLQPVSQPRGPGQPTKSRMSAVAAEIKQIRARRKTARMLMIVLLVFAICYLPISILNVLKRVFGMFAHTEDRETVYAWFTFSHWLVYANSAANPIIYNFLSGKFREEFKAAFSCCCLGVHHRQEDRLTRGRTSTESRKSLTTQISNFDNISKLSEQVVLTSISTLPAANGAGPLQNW
# [3] = Lipophilicity, log D of the compound at pH 7.4 by HPLC analysis; type: physicochemical; settings: buffer
# [4] = Half-life in Sprague-Dawley rat at 2 mg/kg, iv; type: ADME, organism-based; settings: in vivo
# Rattus norvegicus [5] = assay: Sleep-promoting activity in ip dosed Wistar rat by polysomnography; type: functional; settings: read-out: MED
# [6] = Half-life in human at 10 to 80 mg, po administered as single dose; type: ADME, organism-based; settings: in vivo
# [7] = Tmax in dog at 3 mg/kg, po; type: ADME, organism-based, Canis lupus familiaris; settings: in vivo
# [8] = Tmax in Sprague-Dawley rat at 3 mg/kg, po; type: ADME, organism-based; settings: in vivo
# [9] = Clearance in dog at 0.5 mg/kg, iv; type: ADME, organism-based, Canis lupus familiaris; settings: in vivo
# [10] = Plasma protein binding in dog at 2 ug/mL; type: ADME, cell-free, Canis lupus familiaris; settings: read-out: PPB (converted)
# [11] = Volume of distribution in dog at 0.5 mg/kg, iv; type: ADME, organism-based, Canis lupus familiaris; settings: in vivo
# [12] = Oral bioavailability in dog at 3 mg/kg; type: ADME, organism-based, Canis lupus familiaris; settings: in vivo
# [13] = Drug metabolism in human liver microsomes incubated for 15 mins; type: ADME, Microsome; settings: read-out: Drug metabolism
# [14] = Clearance in Sprague-Dawley rat at 1 mg/kg or 2 mg/kg, iv; type: ADME, organism-based; settings: in vivo
# [15] = Drug uptake in cerebrospinal fluid in Sprague-Dawley rat at 3 mg/kg, po measured after 1 hr; type: ADME, organism-based; settings: read-out: Drug uptake
# [16] = Drug metabolism in dog liver microsomes incubated for 15 mins; type: ADME, Canis lupus familiaris, Microsome; settings: read-out: Drug metabolism
# Rattus norvegicus [17] = assay: Sleep-promoting activity in Wistar rat assessed as fast sleep onset latency at 1 to10 mg/kg, po administered 10 mins prior to the onset of dark period measured every 20s for 2 hrs by polysomnography; type: functional, organism-based
# Rattus norvegicus [18] = assay: Sleep-promoting activity in po dosed Wistar rat administered 10 mins prior to the onset of dark period measured every 20s for 2 hrs by polysomnography; type: functional; settings: read-out: MED
# [19] = Oral bioavailability in Sprague-Dawley rat at 3 mg/kg; type: ADME, organism-based; settings: in vivo
# [20] = Volume of distribution in Sprague-Dawley rat at 1 mg/kg or 2 mg/kg, iv; type: ADME, organism-based; settings: in vivo
# [21] = Ratio of drug level in cerebrospinal fluid to plasma in Sprague-Dawley rat at 3 mg/kg, po; type: ADME, organism-based; settings: csf
# [22] = target: T3, Orexin/Hypocretin receptor type 1 (Rattus norvegicus) (UniProt P56718); assay: Antagonist activity at rat recombinant OX1R expressed in CHOK1 cells assessed as inhibition of orexin A-induced intracellular Ca2+ release preincubated for 30 mins followed by orexin-A stimulation by Fluo4-AM dye based fluorescence analysis; type: functional, cell-based; settings: CHO-K1
# T3 sequence (whole entry): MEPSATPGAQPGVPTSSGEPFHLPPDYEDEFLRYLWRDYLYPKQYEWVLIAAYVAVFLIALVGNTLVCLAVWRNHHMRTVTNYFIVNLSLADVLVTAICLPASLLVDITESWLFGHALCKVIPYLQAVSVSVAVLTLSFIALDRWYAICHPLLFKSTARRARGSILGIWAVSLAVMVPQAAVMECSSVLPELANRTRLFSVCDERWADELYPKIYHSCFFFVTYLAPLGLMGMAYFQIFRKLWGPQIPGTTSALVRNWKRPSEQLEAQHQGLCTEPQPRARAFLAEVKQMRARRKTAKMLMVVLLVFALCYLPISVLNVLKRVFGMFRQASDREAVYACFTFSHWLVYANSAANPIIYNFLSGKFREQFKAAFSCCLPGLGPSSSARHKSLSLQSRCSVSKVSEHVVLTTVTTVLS
# [23] = Drug metabolism in rat liver microsomes incubated for 15 mins; type: ADME, Microsome; settings: read-out: Drug metabolism
# [24] = Half-life in Sprague-Dawley rat at 1 mg/kg or 2 mg/kg, iv; type: ADME, organism-based; settings: in vivo
# P-gp (ABCB1) = P-gp (ABCB1) (Homo sapiens, UniProt P08183); assay: Substrate activity at P-gp (unknown origin) assessed as efflux ratio; type: ADME; settings: not told
# [25] = Ratio of drug level in brain to plasma in Sprague-Dawley rat at 3 mg/kg, po; type: ADME, organism-based
# [26] = target: T4, Orexin receptor type 2 (Rattus norvegicus) (UniProt P56719); assay: Antagonist activity at rat recombinant OX2R expressed in CHOK1 cells assessed as inhibition of orexin A-induced intracellular Ca2+ release preincubated for 30 mins followed by orexin-A stimulation by Fluo4-AM dye based fluorescence analysis; type: functional, cell-based; settings: CHO-K1
# T4 sequence (whole entry): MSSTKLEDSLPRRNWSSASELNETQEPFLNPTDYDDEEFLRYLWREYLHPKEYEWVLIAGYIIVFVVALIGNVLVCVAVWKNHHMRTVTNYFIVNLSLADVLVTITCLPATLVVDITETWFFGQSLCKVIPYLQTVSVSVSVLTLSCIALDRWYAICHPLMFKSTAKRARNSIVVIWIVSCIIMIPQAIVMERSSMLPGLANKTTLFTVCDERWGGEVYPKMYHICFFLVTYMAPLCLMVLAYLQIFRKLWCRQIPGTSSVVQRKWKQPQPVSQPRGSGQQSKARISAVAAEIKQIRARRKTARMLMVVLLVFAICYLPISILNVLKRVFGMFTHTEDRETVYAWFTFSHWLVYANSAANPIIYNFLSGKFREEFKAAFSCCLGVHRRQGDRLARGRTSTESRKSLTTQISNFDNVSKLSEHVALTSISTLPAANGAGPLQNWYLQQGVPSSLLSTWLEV
# [27] = Plasma protein binding in Sprague-Dawley rat at 2 ug/mL; type: ADME, cell-free; settings: read-out: PPB (converted)
# [28] = Chemical stability of the compound in JP 1st fluid at pH 1.2 at 37 degC incubated for 24 hrs; type: physicochemical; settings: buffer, pH 1.2, 24 h
# Rattus norvegicus [29] = assay: Sleep-promoting activity in po dosed Wistar rat assessed as increase in total sleep administered 10 mins prior to the onset of dark period measured every 20s for 2 hrs by polysomnography; type: functional, organism-based
# [30] = Half-life in human plasma at 40 mg,po administered once daily; type: ADME, cell-free
# [31] = Half-life in human; type: ADME
# P-gp (ABCB1), sequence (P08183 whole entry): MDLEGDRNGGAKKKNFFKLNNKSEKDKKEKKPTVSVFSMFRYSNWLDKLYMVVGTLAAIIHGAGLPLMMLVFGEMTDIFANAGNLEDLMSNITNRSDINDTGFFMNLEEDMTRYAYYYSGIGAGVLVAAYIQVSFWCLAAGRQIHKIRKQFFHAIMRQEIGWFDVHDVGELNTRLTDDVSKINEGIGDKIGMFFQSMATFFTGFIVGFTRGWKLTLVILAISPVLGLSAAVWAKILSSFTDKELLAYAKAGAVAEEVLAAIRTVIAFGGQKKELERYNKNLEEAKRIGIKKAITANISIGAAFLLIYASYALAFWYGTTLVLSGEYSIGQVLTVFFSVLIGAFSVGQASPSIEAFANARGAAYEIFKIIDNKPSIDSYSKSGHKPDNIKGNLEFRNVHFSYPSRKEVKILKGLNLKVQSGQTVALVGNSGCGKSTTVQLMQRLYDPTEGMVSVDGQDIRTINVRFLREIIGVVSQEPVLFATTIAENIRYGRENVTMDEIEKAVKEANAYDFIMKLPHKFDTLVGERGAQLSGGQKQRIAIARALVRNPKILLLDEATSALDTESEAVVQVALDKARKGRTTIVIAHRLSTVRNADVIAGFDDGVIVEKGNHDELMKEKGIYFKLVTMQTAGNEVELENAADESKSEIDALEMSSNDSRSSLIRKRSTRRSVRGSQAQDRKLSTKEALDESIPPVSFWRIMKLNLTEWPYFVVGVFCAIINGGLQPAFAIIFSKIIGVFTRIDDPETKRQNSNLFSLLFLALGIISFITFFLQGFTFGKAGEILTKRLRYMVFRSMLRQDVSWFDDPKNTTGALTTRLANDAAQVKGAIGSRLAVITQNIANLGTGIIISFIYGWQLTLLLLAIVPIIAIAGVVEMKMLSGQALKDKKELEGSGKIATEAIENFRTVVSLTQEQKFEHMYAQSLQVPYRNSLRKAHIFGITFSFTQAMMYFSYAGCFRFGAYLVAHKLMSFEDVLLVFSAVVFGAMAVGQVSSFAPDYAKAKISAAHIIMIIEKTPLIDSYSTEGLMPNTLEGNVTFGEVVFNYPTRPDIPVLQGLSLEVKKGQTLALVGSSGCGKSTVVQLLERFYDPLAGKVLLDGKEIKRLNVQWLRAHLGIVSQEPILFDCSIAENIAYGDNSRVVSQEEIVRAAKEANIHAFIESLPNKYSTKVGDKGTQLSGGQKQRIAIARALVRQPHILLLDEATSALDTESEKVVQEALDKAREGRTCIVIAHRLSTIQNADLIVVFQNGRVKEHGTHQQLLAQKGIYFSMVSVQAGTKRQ
compound,measurement,setting,value
CCN(CCn1ccc(-c2ccc(F)cn2)n1)C(=O)c1ccccc1-n1nccn1,half-life,[1],64.2 min
same,IC50,[2],20.6 nM
same,IC50,Orexin receptor type 2,38.7 nM
same,logD,[3],2.53
same,half-life,[4],24.7 min
same,minimal effective dose,Rattus norvegicus [5],3 mg/kg
Cc1cc(C)nc(N2CC3CN(C(=O)c4c(F)cccc4-n4nccn4)CC3C2)n1 (configuration not stated) [SELTOREXANT],half-life,[6],120 min
Cc1ccc(-n2nccn2)c(C(=O)N2CCCO[C@H]2Cn2ccc(-c3ccc(F)cn3)n2)c1,Tmax,[7],35 min
same,Tmax,[8],20 min
same,clearance,[9],2.65 mL/min/kg
same,fraction unbound at 2 ug/mL,[10],0.036
same,Vd,[11],0.294 L/kg
same,half-life,[1],69.6 min
same,bioavailability,[12],61.6%
same,IC50,[2],1.05 nM
same,IC50,Orexin receptor type 2,1.27 nM
same,metabolised at 0.25 h,[13],34.4%
same,clearance,[14],39.5 mL/min/kg
same,concentration at 1 h,[15],2.23 nM
same,metabolised at 0.25 h,[16],10.5%
same,Activity,Rattus norvegicus [17],Active
same,minimal effective dose,Rattus norvegicus [18],1 mg/kg
same,logD,[3],2.58
same,bioavailability,[19],5.5%
same,Vd,[20],0.853 L/kg
same,Ratio,[21],3.1%
same,Kb,[22],0.44 nM
same,metabolised at 0.25 h,[23],51%
same,half-life,[24],14.3 min
same,efflux ratio,P-gp (ABCB1),2.43
same,Ratio,[25],13.5%
same,Kb,[26],0.8 nM
same,fraction unbound at 2 ug/mL,[27],0.12
same,Stability,[28],Stable
same,Activity,Rattus norvegicus [29],Dose-dependent effect
Cc1ccc(-n2nccn2)c(C(=O)N2CCN(c3nc4cc(Cl)ccc4o3)CC[C@H]2C)c1 [SUVOREXANT],half-life,[30],720 min
COc1ccc(-n2nccn2)c(C(=O)N2CCC[C@@]2(C)c2nc3c(C)c(Cl)ccc3[nH]2)c1 [DARIDOREXANT],half-life,[31],360 min
